Source: PubChem BioAssay (NCI)
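Following 48 hours of exposure in 96-well plates, responses at five concentrations were used to interpolate endpoints linearly. The concentration for 50% growth inhibition is given as GI50. The concentration for full growth arrest is given as TGI.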

Assays:
Assay in all cases: inhibition of tumour cell growth, NCI panel, 48 h
M14 melanoma = test system: M14 melanoma
SK-MEL-5 melanoma = test system: SK-MEL-5 melanoma
NCI/ADR-RES ovarian = test system: NCI/ADR-RES ovarian
CAKI-1 renal = test system: CAKI-1 renal
TK-10 renal = test system: TK-10 renal
NCI-H226 lung = test system: NCI-H226 lung
COLO 205 colon = test system: COLO 205 colon
OVCAR-3 ovarian = test system: OVCAR-3 ovarian
CCRF-CEM leukemia = test system: CCRF-CEM leukemia
A498 renal = test system: A498 renal
SK-MEL-2 melanoma = test system: SK-MEL-2 melanoma
U251 CNS = test system: U251 CNS
ACHN renal = test system: ACHN renal
LOX IMVI melanoma = test system: LOX IMVI melanoma
MOLT-4 leukemia = test system: MOLT-4 leukemia
DU-145 prostate = test system: DU-145 prostate
SR leukemia = test system: SR leukemia
A549 NSCLC = test system: A549 NSCLC
KM12 colon = test system: KM12 colon
UO-31 renal = test system: UO-31 renal
NCI-H23 lung = test system: NCI-H23 lung
MCF7 breast = test system: MCF7 breast
SNB-75 CNS = test system: SNB-75 CNS
MALME-3M melanoma = test system: MALME-3M melanoma
HOP-62 NSCLC = test system: HOP-62 NSCLC
RXF 393 renal = test system: RXF 393 renal
OVCAR-8 ovarian = test system: OVCAR-8 ovarian
RPMI-8226 leukemia = test system: RPMI-8226 leukemia
HCT-15 colon = test system: HCT-15 colon
OVCAR-4 ovarian = test system: OVCAR-4 ovarian
HCC-2998 colon = test system: HCC-2998 colon
K-562 leukemia = test system: K-562 leukemia
SF-295 CNS = test system: SF-295 CNS
HOP-92 NSCLC = test system: HOP-92 NSCLC
HT29 colon = test system: HT29 colon
SF-539 CNS = test system: SF-539 CNS
HL-60(TB) leukemia = test system: HL-60(TB) leukemia
UACC-257 melanoma = test system: UACC-257 melanoma
MDA-MB-231 breast = test system: MDA-MB-231 breast
PC-3 prostate = test system: PC-3 prostate
HCT-116 colon = test system: HCT-116 colon
MDA-MB-435 = test system: MDA-MB-435
SN12C renal = test system: SN12C renal
SF-268 CNS = test system: SF-268 CNS
NCI-H460 lung = test system: NCI-H460 lung
IGROV1 ovarian = test system: IGROV1 ovarian
EKVX NSCLC = test system: EKVX NSCLC
OVCAR-5 ovarian = test system: OVCAR-5 ovarian
NCI-H522 lung = test system: NCI-H522 lung
SW-620 colon = test system: SW-620 colon
HS 578T breast = test system: HS 578T breast
T-47D breast = test system: T-47D breast
UACC-62 melanoma = test system: UACC-62 melanoma
SNB-19 CNS = test system: SNB-19 CNS
SK-MEL-28 melanoma = test system: SK-MEL-28 melanoma

O=C(Nc1ccc(-n2cc(-c3ccncc3)c(-c3ccc(O)c(Cl)c3)n2)cc1)c1cc(Cl)cc(Cl)c1
GI50 (M14 melanoma): 712 nM | TGI (M14 melanoma): 1680 nM | GI50 (SK-MEL-5 melanoma): 877 nM | TGI (SK-MEL-5 melanoma): 6850 nM | GI50 (NCI/ADR-RES ovarian): 1920 nM | TGI (NCI/ADR-RES ovarian): > 32500 nM | GI50 (CAKI-1 renal): 2640 nM | TGI (CAKI-1 renal): 28000 nM | GI50 (TK-10 renal): 6800 nM | TGI (TK-10 renal): > 32500 nM | GI50 (NCI-H226 lung): > 32500 nM | TGI (NCI-H226 lung): > 32500 nM | GI50 (COLO 205 colon): > 32500 nM | TGI (COLO 205 colon): > 32500 nM | GI50 (OVCAR-3 ovarian): 1910 nM | TGI (OVCAR-3 ovarian): > 32500 nM | GI50 (CCRF-CEM leukemia): 1450 nM | TGI (CCRF-CEM leukemia): > 32500 nM | GI50 (A498 renal): > 32500 nM | TGI (A498 renal): > 32500 nM | GI50 (SK-MEL-2 melanoma): 899 nM | TGI (SK-MEL-2 melanoma): 2940 nM | GI50 (U251 CNS): 1320 nM | TGI (U251 CNS): > 32500 nM | GI50 (ACHN renal): 1510 nM | TGI (ACHN renal): > 32500 nM | GI50 (LOX IMVI melanoma): 853 nM | TGI (LOX IMVI melanoma): > 32500 nM | GI50 (MOLT-4 leukemia): 1290 nM | TGI (MOLT-4 leukemia): > 32500 nM | GI50 (DU-145 prostate): 2170 nM | TGI (DU-145 prostate): > 32500 nM | GI50 (SR leukemia): 1360 nM | TGI (SR leukemia): > 32500 nM | GI50 (A549 NSCLC): 2860 nM | TGI (A549 NSCLC): > 32500 nM | GI50 (KM12 colon): 1470 nM | TGI (KM12 colon): > 32500 nM | GI50 (UO-31 renal): 1620 nM | TGI (UO-31 renal): > 32500 nM | GI50 (NCI-H23 lung): 12100 nM | TGI (NCI-H23 lung): > 32500 nM | GI50 (MCF7 breast): 3330 nM | TGI (MCF7 breast): > 32500 nM | GI50 (SNB-75 CNS): 1350 nM | TGI (SNB-75 CNS): > 32500 nM | GI50 (MALME-3M melanoma): 2660 nM | TGI (MALME-3M melanoma): > 32500 nM | GI50 (HOP-62 NSCLC): 2870 nM | TGI (HOP-62 NSCLC): > 32500 nM | GI50 (RXF 393 renal): 575 nM | TGI (RXF 393 renal): 1130 nM | GI50 (OVCAR-8 ovarian): 1660 nM | TGI (OVCAR-8 ovarian): > 32500 nM | GI50 (RPMI-8226 leukemia): 1070 nM | TGI (RPMI-8226 leukemia): 6180 nM | GI50 (HCT-15 colon): 908 nM | TGI (HCT-15 colon): > 32500 nM | GI50 (OVCAR-4 ovarian): 2560 nM | TGI (OVCAR-4 ovarian): > 32500 nM | GI50 (HCC-2998 colon): 11800 nM | TGI (HCC-2998 colon): > 32500 nM | GI50 (K-562 leukemia): 1020 nM | TGI (K-562 leukemia): > 32500 nM | GI50 (SF-295 CNS): 1050 nM | TGI (SF-295 CNS): 5300 nM | GI50 (HOP-92 NSCLC): 1280 nM | TGI (HOP-92 NSCLC): > 32500 nM | GI50 (HT29 colon): 1010 nM | TGI (HT29 colon): 5110 nM | GI50 (SF-539 CNS): 1010 nM | TGI (SF-539 CNS): > 32500 nM | GI50 (HL-60(TB) leukemia): 1600 nM | TGI (HL-60(TB) leukemia): > 32500 nM | GI50 (UACC-257 melanoma): 13800 nM | TGI (UACC-257 melanoma): > 32500 nM | GI50 (MDA-MB-231 breast): 647 nM | TGI (MDA-MB-231 breast): 1450 nM | GI50 (PC-3 prostate): 1960 nM | TGI (PC-3 prostate): > 32500 nM | GI50 (HCT-116 colon): 1570 nM | TGI (HCT-116 colon): > 32500 nM | GI50 (MDA-MB-435): 1870 nM | TGI (MDA-MB-435): > 32500 nM | GI50 (SN12C renal): 2440 nM | TGI (SN12C renal): > 32500 nM | GI50 (SF-268 CNS): 3850 nM | TGI (SF-268 CNS): > 32500 nM | GI50 (NCI-H460 lung): 2000 nM | TGI (NCI-H460 lung): > 32500 nM | GI50 (IGROV1 ovarian): > 32500 nM | TGI (IGROV1 ovarian): > 32500 nM | GI50 (EKVX NSCLC): 18200 nM | TGI (EKVX NSCLC): > 32500 nM | GI50 (OVCAR-5 ovarian): > 32500 nM | TGI (OVCAR-5 ovarian): > 32500 nM | GI50 (NCI-H522 lung): 1030 nM | TGI (NCI-H522 lung): > 32500 nM | GI50 (SW-620 colon): 2210 nM | TGI (SW-620 colon): > 32500 nM | GI50 (HS 578T breast): 939 nM | TGI (HS 578T breast): 6520 nM | GI50 (T-47D breast): 18600 nM | TGI (T-47D breast): > 32500 nM | GI50 (UACC-62 melanoma): 3010 nM | TGI (UACC-62 melanoma): > 32500 nM | GI50 (SNB-19 CNS): 2950 nM | TGI (SNB-19 CNS): > 32500 nM | GI50 (SK-MEL-28 melanoma): 3190 nM | TGI (SK-MEL-28 melanoma): > 32500 nM
